Laboratory results taken from patent US8916686B2, “TDF-related compounds and analogs thereof” (Thrasos Innovation, Inc., priority 2004, dated 2014).

How the values were obtained:
Smad1 = Smad1 nuclear translocation in HK-2 cells (immunofluorescence); assay type: cell-based, human; conditions: 1.3 uM and 33 uM compound
Method: Phosphorylation and nuclear translocation of Smads occurs following the activation of Type I and Type II receptors and subsequent signal transduction to intracellular Smad targets. Phosphorylation and nuclear translocation of R-Smad in HK-2 cells by TDFRP compounds is assayed by immuno-fluorescent microscopy methods, using anti-phospho Smad 1/5 antibodies according to the procedure of H Aoki, M Fujii, T Imamura, K Yagi, K Takehara, M Kato and K Miyazono. J. of Cell Sci. 114, 1483-1489, 2001) and by Western blot analysis (FIG. 15A-FIG. 15C).
HK2, human proximal tubule cells are incubated in culture medium alone or exposed TDFRP or control compounds for one hour ten minutes at 37 degree C. BMP-7 served as a positive control in the assay. Each well is rinsed with 1 mL prewarmed medium. 1 mL per well of cold Acetone/Methanol mix (1:1) is added and incubated for 2 minutes at room temperature to fix the cells. Wells are washed with 1 mL of cold PBS and blocked with 1 mL blocking buffer (3% BSA, 1% goat serum in PBS) for 7 minutes. Wells are aspirated without disturbing the cells, and 500 uL/well primary antibody is added (anti-phospho-Smad 1) at 0.056 ug/mL concentration in 3% BSA in PBS (no goat serum). Cells are incubated overnight at 4 degrees C. […]

[1] = tested on: rat osteosarcoma (17/2.8) cells; assay: Rat osteosarcoma (ROS) cell-based alkaline phosphatase assay; conditions: 0.02-200 uM, 2 days; relative to BMP-7 standard
Method: BMP interactions with Type I and Type II receptors can induce alkaline phosphatase activity, a marker for osteoblast activity, in ROS cells. An assay procedure as described earlier (Maliakal, J.C., Asahina, I., Hauschka, P. V., and Sampath, T. K. (1994) Growth factors 11, 227-234) was used to determine the biological activities of TDFRP compounds. In a typical experiment, rat osteosarcoma (17/2.8) cells are plated in 96 well plates (3.0×10^4 cells/well) and incubated overnight at 37 C in 5-6% CO2 incubator. The next day, healthy and confluent cells are treated with increasing concentrations of BMP-7 standard (1-10,000 ng/ml) served as positive control or TDFRP compounds (0.02-200 uM) prepared in medium containing 1% FBS and incubated for 2 days at 37 C in 5-6% CO2 incubator. The cellular content of alkaline phosphatase activity is determined by the method of Reddi and Huggins (Reddi, A. H., and Huggins, C. B (1972) Proc. Natl. Acad. Sci. USA 69, 1601-1605). Enzyme estimations are performed in 96 well plates. Following removal of culture medium, cells are washed with pre-warmed PBS (150 ul) and incubated in 100 ul of pre-warmed 1% Triton X-100 for 30 minutes at 37 C. Plates are centrifuged for 10 minutes at full speed, and recovered samples (15 ul) are assayed for enzyme activity by adding 90 ul p-nitrophenyl phosphate (Sigma) as a substrate in 0.05 M glycine-NaOH buffer, pH 9.3 and incubating for 20 minutes at 37 C. The reaction is stopped by adding 75 ul of 0.2 N NaOH/well and absorbance at 405/490 nm is measured on a Dynatech MR 700 plate reader. Results are expressed as relative activities compared to a BMP-7 standard.

Sequence: CYFDDSSNVLCKKYRS [SEQ ID NO 45]
- Smad1 translocation (Smad1): Smad1 Translocation
- induction of alkaline phosphatase activity [1]: did not induce alkaline phosphatase activity
